Assay results from US20210134398A1, “Combinatorial Chemistry Computational System and Enhanced Selection Method” (Southern Methodist University, priority 2019, published 2021).
“Also recorded” adds a separate entry of the source.

How the values were obtained:
[1] = tested on: P-gp overexpressing prostate cancer cell line, DU145TXR; test: MTT cell viability assay, resensitization to paclitaxel; format: cell-based, human; conditions: for Fold vs PTX + 29: vs paclitaxel + parental compound 29; for Fold vs PTX (fold increased sensitivity): vs paclitaxel alone; for Resensitization of DU145TXR to paclitaxel / MDR reversal (in words): 3 to 10 μM inhibitor
Excerpt: The Group 1 ChemGen/docking routine produced variants of P-gp inhibitor 29 resensitize a multidrug resistant, P-gp overexpressing prostate cancer cell line to paclitaxel. The mitochondrial reduction potential of cells is often used as an indicator for cell viability using MTT assays^4. Using these assays it was observed that the five Group 1 derivatives of 29 predicted through the ChemGen/docking routine and synthesized here, 216, 227, 231, 541 and 551, re-sensitized the P-gp overexpressing prostate cancer cell line, DU145TXR^33, to the chemotherapeutic, paclitaxel (FIG. 12, showing results of assays at concentrations of 3 μM, 5 μM, 7 μM, and 10 μM).
Cytotoxicity of the chemotherapeutic, paclitaxel (PTX) to P-gp overexpressing prostate cancer cells, DU145TXR, was determined in the absence and presence of the ChemGen designed 29-variants, 216, 227, 231, 541 and 551. For each experimental compound IC50 values of PTX alone or in the presence of inhibitors, fold improvement of PTX sensitivity in the presence of inhibitor, and fold improvement of PTX sensitivity by variants compared to parental compound 29 are given.
Effects of Group 2 variants on the paclitaxel sensitivity of P-glycoprotein overexpressing prostate cancer cells, DU145TXR. MTT assays were again used to assess the efficacy of the new structural 29-variants on sensitizing the chemotherapy-resistant prostate cancer cell line, DU145TXR, to paclitaxel, at concentrations of 3 μM, 5 μM, 7 μM, and 10 μM as shown in FIG. 15 and Table 4.
MTT cell viability assay. Cells were trypsinized from monolayers and seeded with 3000 cells in 150 μL of complete medium in a 96 well plate. After 24 hours, cells were treated for 48 hours with paclitaxel (Acros Organics, NJ) and/or P-gp inhibitory compounds dissolved in DMSO, or DMSO controls. All additions were diluted into complete medium. After 48 hours of treatment, MTT assays were performed as described^41 using 5 mg/mL of MTT (Acros Organics, NJ) solution prepared in PBS (137 mM NaCl, 2.7 mM KCl, 10 mM Na2HPO4, 1.8 mM KH2PO4, pH 7.4). After 4 hours of incubation with MTT, the media was removed and the formazan crystals were dissolved in 100 μL of DMSO. The absorbance at 570 nm was then measured using a BioTek Cytation 5 imaging multi-mode reader (Bio-Tek, Winooski, Vt.). Percent viability was calculated using DMSO treated cells as representative for 100% viability, according to Equation 1. Background absorbance was determined using MTT and complete medium without cells and subtracted from all the test values. Equation 1:
The results were plotted as the mean with standard deviation (SD) of eight replicates per concentration from at least two independent experiments with n=8. The graphical representations and IC50 values were determined using four parameter variable slope non-linear regression, using the following equation: Y=bottom+(top-bottom)/(1+10^((log IC50−X)*Hill Slope) (GraphPad Prism™, La Jolla Calif., USA, Version 6.05). The reported “fold sensitization” was calculated as follows, per Equation 2: […]

[2] = target: T1, Cysteineless Mouse MDR3 P-glycoprotein (Mus musculus, UniProt P21447, C1070A/C1121A/C1223A/C133A/C427A/C638A/C669A/C713A/C952A); test: ATPase activity assay (basal and verapamil-stimulated), purified P-gp in mixed micelles; format: biochemical; conditions: for Effect on stimulated ATPase / Stimulated ATPase: in the presence of verapamil; for Stimulated ATPase / Basal ATPase: ± standard deviation; for Effect on basal ATPase / Basal ATPase: no added transport substrate
T1 construct: made in house; host or cells: Pichia pastoris
T1 sequence (P21447 whole entry C133A/C427A/C638A/C669A/C713A/C952A/C1070A/C1121A/C1223A): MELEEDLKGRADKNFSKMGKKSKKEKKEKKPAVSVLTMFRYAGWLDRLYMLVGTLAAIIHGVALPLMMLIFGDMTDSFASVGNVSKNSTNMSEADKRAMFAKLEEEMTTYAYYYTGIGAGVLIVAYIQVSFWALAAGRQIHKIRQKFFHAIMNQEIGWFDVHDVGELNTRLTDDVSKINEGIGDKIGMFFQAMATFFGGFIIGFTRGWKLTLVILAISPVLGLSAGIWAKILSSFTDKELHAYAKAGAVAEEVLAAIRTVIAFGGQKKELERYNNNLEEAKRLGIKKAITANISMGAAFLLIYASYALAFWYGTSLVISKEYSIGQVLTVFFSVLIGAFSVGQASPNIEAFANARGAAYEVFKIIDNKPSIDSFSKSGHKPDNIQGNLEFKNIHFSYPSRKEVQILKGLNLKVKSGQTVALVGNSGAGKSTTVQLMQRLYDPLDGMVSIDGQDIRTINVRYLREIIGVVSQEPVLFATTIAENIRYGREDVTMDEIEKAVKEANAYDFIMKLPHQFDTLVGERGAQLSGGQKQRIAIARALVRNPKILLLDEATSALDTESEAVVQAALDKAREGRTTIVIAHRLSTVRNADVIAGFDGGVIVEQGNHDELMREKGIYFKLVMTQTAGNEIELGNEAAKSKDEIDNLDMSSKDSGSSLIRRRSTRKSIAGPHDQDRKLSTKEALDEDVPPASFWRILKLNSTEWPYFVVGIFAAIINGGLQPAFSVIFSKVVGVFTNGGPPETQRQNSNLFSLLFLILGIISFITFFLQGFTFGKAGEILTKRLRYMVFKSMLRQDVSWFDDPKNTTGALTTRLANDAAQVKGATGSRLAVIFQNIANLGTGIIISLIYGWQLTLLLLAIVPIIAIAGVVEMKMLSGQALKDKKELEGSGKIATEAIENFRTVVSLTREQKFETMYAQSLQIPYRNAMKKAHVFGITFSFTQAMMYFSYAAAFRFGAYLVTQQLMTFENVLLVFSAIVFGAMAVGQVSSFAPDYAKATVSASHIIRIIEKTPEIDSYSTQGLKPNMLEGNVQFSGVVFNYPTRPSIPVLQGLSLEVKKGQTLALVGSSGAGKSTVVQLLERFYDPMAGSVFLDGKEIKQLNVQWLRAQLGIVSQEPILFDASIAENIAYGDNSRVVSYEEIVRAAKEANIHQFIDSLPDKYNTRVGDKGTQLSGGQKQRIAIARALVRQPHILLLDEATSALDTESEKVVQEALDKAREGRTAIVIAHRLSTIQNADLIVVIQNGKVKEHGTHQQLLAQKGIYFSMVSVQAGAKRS
Description: Evaluation of mode of inhibition of P-glycoprotein by Group 1 and Group 2 variants of compound 29. To assess the mode of inhibition of P-gp by the novel variants of P-gp inhibitor 29, ATP hydrolysis by P-gp was evaluated in the presence or absence of the variants. […] Murine P-gp (MDR3) expressed in Pichia pastoris that had all naturally occurring cysteines replaced with alanine, was used^45, 46. It is widely assumed that the ATP hydrolytic rate of P-gp is stimulated in the presence of transport substrates when compared to ATP hydrolysis in the absence of transport substrates. Assays comparing these rates can therefore be useful not only in identifying inhibitors of P-gp catalyzed ATP hydrolysis, but also to potentially infer whether a compound might be a transport substrate if basal ATPase rates are stimulated by the addition of a compound.
(§1) P-glycoprotein Purification. Cysteine-less MDR3 and the human normal MDR1 P-glycoprotein was recombinantly expressed in the yeast Pichia pastoris essentially as in^45, 46 and used for assaying ATP hydrolysis and ATP binding to the protein in the presence of the 29-variants. Purification of the protein was performed as described^49 with small modifications resulting in highly enriched P-gp in mixed micelles containing dodecyl maltoside (DDM) and lysophosphatidyl choline^26.
(§2) ATPase Activity Assays. ATP hydrolysis activity was measured using a coupled enzyme assay^72 as modified in reference^26.

[3] = target: T2, Normal Human MDR1 P-glycoprotein (Homo sapiens, UniProt P08183); test: ATPase activity assay (basal and verapamil-stimulated), P-gp in nanodiscs; format: biochemical; conditions: for Effect on stimulated ATPase / Stimulated ATPase: in the presence of verapamil; for Stimulated ATPase / Basal ATPase: ± standard deviation; for Effect on basal ATPase / Basal ATPase: no added transport substrate
T2 construct: made in house; host or cells: Pichia pastoris (P-gp); E. coli BL21 (DE3) (MSP1E3D1)
T2 sequence (P08183 whole entry): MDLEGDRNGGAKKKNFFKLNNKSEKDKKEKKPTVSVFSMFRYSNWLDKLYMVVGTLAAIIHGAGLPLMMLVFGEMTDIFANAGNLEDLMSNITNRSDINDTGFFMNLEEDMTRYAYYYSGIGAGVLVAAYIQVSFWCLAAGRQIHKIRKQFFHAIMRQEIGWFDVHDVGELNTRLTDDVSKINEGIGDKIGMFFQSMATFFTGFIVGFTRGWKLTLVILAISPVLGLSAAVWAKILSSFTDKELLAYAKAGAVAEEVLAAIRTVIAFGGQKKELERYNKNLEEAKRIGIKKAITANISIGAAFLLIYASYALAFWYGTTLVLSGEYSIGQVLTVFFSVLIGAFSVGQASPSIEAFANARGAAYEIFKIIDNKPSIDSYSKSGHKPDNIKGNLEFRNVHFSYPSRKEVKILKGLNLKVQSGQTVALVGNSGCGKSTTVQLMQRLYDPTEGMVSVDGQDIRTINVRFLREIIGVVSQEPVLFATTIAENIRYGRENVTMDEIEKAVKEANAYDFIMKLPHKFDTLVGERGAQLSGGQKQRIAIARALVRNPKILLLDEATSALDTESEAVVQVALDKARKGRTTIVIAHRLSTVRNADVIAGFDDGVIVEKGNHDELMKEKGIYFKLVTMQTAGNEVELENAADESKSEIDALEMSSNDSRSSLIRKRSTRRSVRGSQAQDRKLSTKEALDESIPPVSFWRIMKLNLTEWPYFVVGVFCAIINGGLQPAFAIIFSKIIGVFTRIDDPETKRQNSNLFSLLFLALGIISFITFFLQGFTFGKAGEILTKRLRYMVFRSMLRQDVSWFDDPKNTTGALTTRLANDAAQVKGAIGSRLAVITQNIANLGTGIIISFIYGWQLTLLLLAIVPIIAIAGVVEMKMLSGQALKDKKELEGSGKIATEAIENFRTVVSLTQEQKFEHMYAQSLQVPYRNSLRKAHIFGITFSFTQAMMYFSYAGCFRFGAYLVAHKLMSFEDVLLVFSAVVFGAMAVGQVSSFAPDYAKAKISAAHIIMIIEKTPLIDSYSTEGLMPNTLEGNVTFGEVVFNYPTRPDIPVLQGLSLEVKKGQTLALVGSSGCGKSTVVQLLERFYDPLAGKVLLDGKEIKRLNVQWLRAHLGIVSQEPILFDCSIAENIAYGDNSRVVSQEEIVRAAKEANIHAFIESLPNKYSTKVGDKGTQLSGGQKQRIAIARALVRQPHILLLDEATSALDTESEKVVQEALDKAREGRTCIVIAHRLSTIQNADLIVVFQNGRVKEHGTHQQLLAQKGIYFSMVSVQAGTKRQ
Excerpt: To assess whether the observed discrepancies of compounds stimulating basal P-gp ATPase activity but not being transport substrates of the human pump in the cell culture assessments were due to the fact that these biochemical assays used a cysteineless variant of the mouse MDR3 P-glycoprotein, the experiments were repeated using normal human MDR1 P-gp. In order to stabilize the human protein for the activity assays, the protein was assembled into membrane nanodiscs as described herein.
as §1
Nanodisc assembly. Human P-gp in mixed detergent micelles obtained during protein purification, was reconstituted into nanodiscsas described in references^73, 74 with small modifications. […] The detergent was removed with Bio-Beads™ SM-2 Adsorbent Media (BioRad). Ni-NTA Agarose (Qiagen) chromatography was used to purify P-gp reconstituted nanodiscs using 6 bed volumes of start buffer (20% (v/v) glycerol, 50 mM Tris-CL pH 7.5 at 4° C., 50 mM NaCl), and 5 bed volumes of elution buffer (20% (v/v) glycerol, 50 mM Tris-Cl pH 7.5 at 4° C., 50 mM NaCl, 300 mM imidazole).
as §2

In the case of “2-{[2-(9H-flouoren-2-yl)-2-oxoethyl]}-N-[1-phenyl-3-(2,4,5-trimethylphenyl0-1H-pyrazol-5-yl]acetamide [29-216]”, the “Fold vs PTX + 29” value ([1]; 5 μM inhibitor) is reported as 1.3 fold, the “Fold vs PTX (fold increased sensitivity)” value ([1]; 5 μM inhibitor) is reported as 14 fold and the “Fold vs PTX + 29” value ([1]; 7 μM inhibitor) is reported as 1 fold. The “Fold vs PTX (fold increased sensitivity)” value ([1]; 7 μM inhibitor) was 34 fold, the “Fold vs PTX + 29” value ([1]; 10 μM inhibitor) was 0.4 fold and the “Fold vs PTX (fold increased sensitivity)” value ([1]; 10 μM inhibitor) was 37 fold. For the same compound, the “Effect on stimulated ATPase” value ([2]; listed as 216) was “did not affect; also recorded: little effect”, the “Effect on stimulated ATPase” value ([2]; listed as SMU29-216) was “none” and the “Stimulated ATPase” value [2] was 108 ± 2 % of DMSO. For the same compound, the “Effect on basal ATPase” value ([2]; listed as 216) was “did not significantly affect; also recorded: did not activate”, the “Effect on basal ATPase” value ([2]; listed as SMU29-216) was “none” and the “Basal ATPase” value [2] was 105 ± 7 % of DMSO. The “Effect on stimulated ATPase” value [3] was “inhibitor”, the “Stimulated ATPase” value [3] was 64 ± 6 % of DMSO and the “Effect on basal ATPase” value [3] was “inhibitor”. For the same compound, the “Basal ATPase” value [3] was 69 ± 8 % of DMSO.

For `Cc1cc(C)c(-c2cc(NC(=O)CSCC(=O)N3c4ccccc4CCc4ccccc43)n(-c3ccccc3)n2)cc1C` [29-227, 2-[(2-{2-azatricyclo[9.4.0.0]pentadeca-1(11),3(8},4,6,12,14-hexaen-2-yl)-2-oxoethyl)sulfanyl]-N-[1-phenyl-3-(2,4,5-trimethylphenyl)-1H-pyrazol-5-yl]acetamide], the “Fold vs PTX + 29” value ([1]; 3 μM inhibitor, listed as 227) was 3.8 fold, the “Fold vs PTX (fold increased sensitivity)” value ([1]; 3 μM inhibitor) was 13 fold and the “Fold vs PTX + 29” value ([1]; 5 μM inhibitor) was 3.7 fold. The “Fold vs PTX (fold increased sensitivity)” value ([1]; 5 μM inhibitor) was 41 fold, the “Fold vs PTX + 29” value ([1]; 7 μM inhibitor) was 10 fold and the “Fold vs PTX (fold increased sensitivity)” value ([1]; 7 μM inhibitor) was 353 fold. For the same compound, the “Fold vs PTX + 29” value ([1]; 10 μM inhibitor) was 5 fold, the “Fold vs PTX (fold increased sensitivity)” value ([1]; 10 μM inhibitor) was 530 fold and the “Resensitization of DU145TXR to paclitaxel / MDR reversal (in words)” value ([1]; listed as 227) was “re-sensitized; also recorded: more effective than 29 at all concentrations tested”. For the same compound, the “Effect on stimulated ATPase” value ([2]; listed as 227) was “inhibited activity similar to parental compound 29; also recorded: inhibited verapamil-stimulated ATPase activity”, the “Effect on stimulated ATPase” value ([2]; listed as SMU29-227) was “inhibitor” and the “Stimulated ATPase” value [2] was 50 ± 2 % of DMSO. For the same compound, the “Effect on basal ATPase” value ([2]; listed as 227) was “did not significantly affect; also recorded: did not activate”, the “Effect on basal ATPase” value ([2]; listed as SMU29-227) was “none” and the “Basal ATPase” value [2] was 88 ± 4 % of DMSO. For the same compound, the “Effect on stimulated ATPase” value [3] was “inhibitor”, the “Stimulated ATPase” value [3] was 62 ± 5 % of DMSO and the “Effect on basal ATPase” value [3] was “none”. The “Basal ATPase” value [3] was 83 ± 7 % of DMSO.

With `Cc1cc(C)c(-c2cc(NC(=O)CSCC(=O)Nc3ccc4ccccc4c3)n(-c3ccccc3)n2)cc1C` [29-231, 2-({[(naphthalen-2-yl)carbamoyl]methyl}sulfanyl)-N-[1-phenyl-3-(2,4,5-trimethylphenyl)-1H-pyrazol-5-yl]acetamide] the “Fold vs PTX + 29” value ([1]; 3 μM inhibitor, listed as 231) was 4.1 fold, the “Fold vs PTX (fold increased sensitivity)” value ([1]; 3 μM inhibitor) was 14 fold and the “Fold vs PTX + 29” value ([1]; 5 μM inhibitor) was 4.2 fold. The “Fold vs PTX (fold increased sensitivity)” value ([1]; 5 μM inhibitor) was 46 fold, the “Fold vs PTX + 29” value ([1]; 7 μM inhibitor) was 8.4 fold and the “Fold vs PTX (fold increased sensitivity)” value ([1]; 7 μM inhibitor) was 303 fold. For the same compound, the “Fold vs PTX + 29” value ([1]; 10 μM inhibitor) was 11 fold, the “Fold vs PTX (fold increased sensitivity)” value ([1]; 10 μM inhibitor) was 1060 fold and the “Resensitization of DU145TXR to paclitaxel / MDR reversal (in words)” value ([1]; listed as 231) was “re-sensitized; also recorded: more effective than 29 at all concentrations tested”. For the same compound, the “Effect on stimulated ATPase” value ([2]; listed as 231) was “slightly stimulated”, the “Effect on stimulated ATPase” value ([2]; listed as SMU26-231) was “stimulator” and the “Stimulated ATPase” value [2] was 141 ± 18 % of DMSO. The “Effect on basal ATPase” value ([2]; listed as SMU26-231) was “inhibitor”, the “Basal ATPase” value [2] was 70 ± 0 % of DMSO and the “Effect on stimulated ATPase” value [3] was “inhibitor”. For the same compound, the “Stimulated ATPase” value [3] was 40 ± 3 % of DMSO, the “Effect on basal ATPase” value [3] was “inhibitor” and the “Basal ATPase” value [3] was 70 ± 4 % of DMSO.
